Data published in patent publication US20200009247A1, “DRUG COMBINATIONS” (ASTEX PHARMACEUTICALS, INC., priority 2013, published 2020).
≈ marks a conversion by molar mass, not a printed value. Read-outs that look alike come from different tables or passages of the source. One block for each compound: values may come before it.

Experiments:
[1] = stability in solvent formulations by HPLC; assay type: physicochemical
Protocol: The stability of a compound of the invention in various formulations under various storage conditions was investigated. Stability was determined by HPLC at the designated time intervals.

solubility = assay type: physicochemical
Text: The good chemical stability taken together with the excellent solubility identified the glycol/glycerin/ethanol (65:25:10) system as a formulation for use in animal experiments.

LINE-1 DNA methylation = LINE-1 DNA methylation in blood samples; assay type: in vivo, cynomolgus monkeys; conditions: monkey blood samples; repeat dose 3 mg/kg; until day 22; p<0.05
Protocol: FIG. 3 illustrates the decrease in LINE1 methylation levels observed in blood samples drawn from cynomolgus monkeys on various days (D) after pretest.
In a repeat dose study, monkeys were dosed 3× weekly subcutaneously (3 mg/kg). […] (FIGS. 1 and 2.) Pharmacodynamic properties (not shown) were monitored and were acceptable. Blood samples were drawn periodically to assay LINE-1 DNA methylation.

[2] = test system: murine mammary carcinoma cells TS/A; test: anti-tumor effect in TS/A murine breast cancer model (Example 6); assay type: in vivo, Balb/c mice; conditions: day 26 vs control mice; SGI-110 3 mg/kg SQ QDx5 days 1-5; anti-CTLA-4 mAb 100 μg at days 8, 11, 14 where combined
Protocol: TS/A is a murine mammary carcinoma originated from a moderately differentiated, weakly immunogenic mammary adenocarcinoma spontaneously arising in a 20-mo-old female BALB/c mouse.
The anti-mouse CTLA-4 was the CTLA-4 mAb 9H10, obtained from BioXCell (West Lebanon, N.H., USA), dosed at 100 μg/mouse in 200 μl (ip).
Balb/c mice (6/group) were injected SQ in the flank region with murine mammary carcinoma cells TS/A (2×10^5).
Control mice were injected with diluent for reconstitution. The effectiveness and tolerability of treatments was evaluated by tumor volume and body weight measurements, respectively.

[3] = single dose pharmacokinetics in monkeys; conditions: single dose 10 mg/kg
[4] = test system: DNA methylation (CMV-EE210 cell line, silenced GFP transgene); test: cell-based green fluorescent protein (GFP) assay for demethylating activity; conditions: concentration at which GFP expression level is reduced from g3 to g1/2; read-out: GFP50
Protocol: The demethylating activity of the compounds was tested in a cell-based green fluorescent protein (GFP) assay. In the assay, a decrease in methylation resulting from exposure to a methylation inhibitor leads to GFP expression, and is readily scored.
The CMV-EE210 cell line containing the epigenetically silenced GFP transgene was used to assay for reactivation of GFP expression by flow cytometry. CMV-EE210 was made by transfecting NIH 3T3 cells with the pTR-UF/UF1/UF2 plasmid, which contained pBS(+) (Stratagene, Inc.) with a cytomegalovirus (CMV) promoter driving a humanized GFP gene adapted for expression in mammalian cells. After transfection, high-level GFP expressing cells were initially selected by FACS analysis and sorting using a MoFlo cytometer (Cytomation, Inc.).
Decitabine, a potent inhibitor of mammalian DNMT1, was used as a positive control. […] Cells were then seeded to 30% confluence (˜5000 cell/well) in a 96-well plate containing the test compounds, and grown for three days in at 37 ° C. in 5% CO2.
The plates were examined under a fluorescent microscope using a 450-490 excitation filter (13 filter cube, Leica, Deerfield Ill.). Wells were scored gl positive, g2 positive, or g3 if GFP was expressed in 10%, 30%, >75% of viable cells, respectively.
Table 1 provides the results of the test for decitabine and the test compounds as DNA methylation inhibitors. GFP50 is the concentration of an inhibitor at which the Green Fluorescent Protein (GFP) expression level is reduced from g3 to g1/2.

% decomposition per hour ([1]; DMSO/water (1:1, w/w), 25° C./60% relative humidity): 0.72
Percent compound detected ([1]; DMSO/water (1:1, w/w), 25° C./60% relative humidity, 5 hours): 90.1%
Percent compound detected ([1]; DMSO/water (1:1, w/w), 25° C./60% relative humidity, time point 0): 93.7%
% decomposition per hour ([1]; DMSO/water (3:1, w/w), 25° C./60% relative humidity): 0.10
Percent compound detected ([1]; DMSO/water (3:1, w/w), 25° C./60% relative humidity, 24 hours): 94.2%
Percent compound detected ([1]; DMSO/water (3:1, w/w), 25° C./60% relative humidity, time point 0): 96.6%
% decomposition per hour ([1]; Propylene Glycol/Glycerin/Ethanol (65:25:10, w/w/w), 2-8° C.): 0.00032
Percent compound detected ([1]; Propylene Glycol/Glycerin/Ethanol (65:25:10, w/w/w), 2-8° C., 3 months): 95.1%
Percent compound detected ([1]; Propylene Glycol/Glycerin/Ethanol (65:25:10, w/w/w), 2-8° C., time point 0): 95.8%
% decomposition per hour ([1]; Propylene Glycol/Glycerin/Ethanol (65:25:10, w/w/w), 25° C./60% relative humidity): 0.013
Percent compound detected ([1]; Propylene Glycol/Glycerin/Ethanol (65:25:10, w/w/w), 25° C./60% relative humidity, 3 months): 67.6%
Percent compound detected ([1]; Propylene Glycol/Glycerin/Ethanol (65:25:10, w/w/w), 25° C./60% relative humidity, time point 0): 95.8%
% decomposition per hour ([1]; Propylene glycol/Glycerin (70:30, v/v), room temperature): 0.021
Percent compound detected ([1]; Propylene glycol/Glycerin (70:30, v/v), room temperature, 24 hours): 96.3%
Percent compound detected ([1]; Propylene glycol/Glycerin (70:30, v/v), room temperature, time point 0): 96.8%
stability in anhydrous DMSO ([1]; anhydrous DMSO): stable
improvement in stability ([1]; combined effects of cooling plus addition of ethanol to the propylene glycol/glycerin system): 66 fold
improvement in stability ([1]; propylene glycol/glycerin/ethanol (65:25:10), changing from warmer to colder storage conditions): 40 fold
% decomposition per hour ([1]; water, pH 7.0, 2-8° C.): 0.14
Percent compound detected ([1]; water, pH 7.0, 2-8° C., 5 hours): 95.1%
Percent compound detected ([1]; water, pH 7.0, 2-8° C., time point 0): 95.8%
% decomposition per hour ([1]; water, pH 7.0, room temperature): 1.1
Percent compound detected ([1]; water, pH 7.0, room temperature, 5 hours): 90.4%
Percent compound detected ([1]; water, pH 7.0, room temperature, time point 0): 95.8%
solubility (solubility; propylene glycol/glycerin/ethanol (65:25:10), organic solvent or mixture, read-out: maximum solubility): 130 to 150 mg/mL (≈ 233 to 269 mM)
solubility (solubility; water, aqueous, read-out: aqueous solubility): 20 mg/mL (≈ 35.9 mM)
AUC [3]: 1,469 ng·hr/mL
SMILES: Nc1ncn([C@H]2C[C@H](OP(=O)(O)OC[C@H]3O[C@@H](n4cnc5c(=O)[nH]c(N)nc54)C[C@@H]3O)[C@@H](CO)O2)c(=O)n1 [SGI-110]
LINE-1 DNA methylation vs level prior to initial dosing (LINE-1 DNA methylation): Decreases
tumor growth inhibition [2]: 62.9%

SMILES: Nc1ncn([C@H]2CC(O)[C@@H](COP(=O)(O)OC3C[C@H](n4cnc5c(=O)[nH]c(N)nc54)O[C@@H]3CO)O2)c(=O)n1 (stereo partly shown)
EC50 [4]: 700 nM

SMILES: Nc1ncn([C@H]2CC(OP(=O)(O)OC[C@H]3O[C@@H](n4cnc5c(=O)[nH]c(N)nc54)CC3O)[C@@H](CO)O2)c(=O)n1 (stereo partly shown)
EC50 [4]: 400 nM

SMILES: Nc1ncn([C@H]2C[C@H](O)[C@@H](CO)O2)c(=O)n1 [Decitabine, 5-aza-2′-deoxycytidine]
EC50 [4]: 500 nM
AUC [3]: 340 ng·h/mL
Cmax [3]: 160 ng/mL
